According to US20080220056A1, “Treatment for liver disease” (UNIVERSITY OF SOUTHAMPTON, priority 2002, published 2008):

Tests used:
Format in all cases: cell-based
[1] = test system: rat hepatic stellate cells; experiment: Propidium iodide FACS analysis of DNA strand breaks in rat hepatic stellate cells; conditions: 1.5 μmol/L gliotoxin, two hours
Method: Hepatic stellate cells cultured in 35-mm diameter dishes (Greiner) were harvested, pelleted by centrifugation and DNA fragmentation determined as outlined elsewhere (Elsharkawy et al., Hepatology (1999) 30:761-769). Propidium Iodide Flow-Activated Cell Sorting Analysis Detached cells were pelleted by centrifugation, washed in PBS, and resuspended in HYPO buffer (0.1% wt/vol) Na3Citrate and 0.1% (wt/vol) Triton™ X-100 containing […] propidium iodide and incubated for 1 hour. The cells were then analyzed by fluorescence-activated cell sorter (FACS) with a Becton Dickinson (San Jose, Calif.) FACScan instrument using a 488 nm excitation wavelength with a band pass filter set at 530 nm. Attached cells were scraped in HYPO buffer after washing cells with PBS.
To characterize the extent and significance of apoptosis in response to gliotoxin, rat hepatic stellate cell DNA strand breaks were assessed by FACS analysis of propidium iodide stained cells. Culture-activated (14-day) rat hepatic stellate cells were treated with 0.05% (vol/vol) DMSO vehicle control or with 1.5 lμmol/L gliotoxin for two hours, harvested, and stained with propidium iodide as outlined in the materials and methods section.

[2] = test system: rat hepatic stellate cells; experiment: TUNEL staining of cultured rat hepatic stellate cells; conditions: 1.5 μmol/L gliotoxin, two hours
From the text: Rat and human hepatic stellate cells and rat liver tissue were fixed in 4% paraformaldehyde in PBS or 10% formalin in PBS, respectively, before being stained with Giemsa. DNA fragmentation was examined by labeling of 3′-OH DNA ends by the enzymatic addition of digoxygenin-labeled deoxyuridine triphosphate (dUTP) using terminal deoxynucleotidyl transferase using a kit from Boehringer essentially as described by the manufacturer. Rat liver tissue sections were pretreated with diethyl pyrocarbonate as described previously (Stahelin et al., J. Clin. Pathol. Mol. Pathol. (1998) 51:204-208) to reduce nonspecific reaction.
DNA strand breaks were also characterized by TUNEL staining. Culture-activated (14-day) rat hepatic stellate cells were treated with 0.05% (vol/vol) DMSO or 1.5 μmol/L gliotoxin for two hours and DNA strand breaks examined by TUNEL staining as outlined in Materials and Methods.

[3] = test system: rat hepatocytes in comparison to rat hepatic stellate cells; experiment: Cell attachment (protein assay): gliotoxin doses killing rat hepatocytes versus hepatic stellate cells; conditions: attachment after four hours, in vitro
Method: (§1) Rat hepatocytes were isolated by collagenase perfusion essentially as previously described. (Harvey et al., Biochemical J., (1998) 331:273-281). Hepatocytes were cultured as outlined for hepatic stellate cells except that they were initially seeded onto collagen coated plates in William's medium E supplemented with 10% fetal calf serum and 1 μg/mL insulin for the first 2 hours.
(§2) Cells were treated with gliotoxin dissolved in DMSO vehicle (added to medium from a 2000-fold molar concentrated stock). Control cells received DMSO vehicle only (i.e., 0.05% vol/vol). All other additions to culture medium were made from concentrated stocks dissolved in DMSO or by direct addition to culture medium. Protein contents of wells were determined using the Lowry assay (Lowry et al., J. Biol. Chem., (1951)193: 265-275).
The necessary doses of gliotoxin required to kill rat hepatic stellate cells and hepatocytes were compared. Culture-activated (14-day) rat hepatic stellate cells or rat hepatocytes were treated with either 0.05% (vol/vol) DMSO or 1.5 μmol/L gliotoxin and cell attachment determined by direct assay of protein in each well after four hours as outlined in Materials and Methods. The results obtained are depicted in FIG. 3A and are expressed as the mean and standard deviation percentage attachment versus DMSO control for three separate experiments.

rat hepatocytes = experiment: Rat hepatocyte viability by attachment and trypan blue exclusion; conditions: 50 μmol/L gliotoxin, four hours
Method: as §1, §2
The effect of various compounds on cell viability and attachment was determined. Viability of rat hepatocytes as judged by attachment and 0.1% (wt/vol) trypan blue exclusion after four hours treatment with: […]

Bcl-2 protein = experiment: Western blotting for Bcl-2 in hepatic stellate cells; conditions: cycloheximide 18 hours with TIMP-1 (200 ng/ml and 100 ng/ml both printed) versus cycloheximide alone
Method: Cultured hepatic stellate cells were harvested with a sterile cell scraper, pelleted by centrifugation, and then resuspended in 500 μl of TE buffer (10 mmol/Tris-HCl, 1 mmol/liter EDTA, pH 8.0) before sonication for 15 min. 100 μl of PicoGreen (Molecular Probes, Inc., Eugene, Oreg.) at 1:200 dilution was added to 100 μl of sample and incubated in the dark at room temperature for 5 min. Standards were made from herring sperm DNA. Fluorescence was measured using a Cytofluor II Microwell Fluorescence reader (Perceptive Biosystems, Framingham, Mass.) at standard wavelengths (excitation 485 nm, emission 530 nm). Concentrations of double-stranded DNA in the samples were calculated from the standard curve. […]
The protein Bcl-2 regulates the properties of cells to undergo apoptosis by interpolating into the mitochondria membrane (Hengartner, supra). […] To define changes in the protein level of Bcl-2, extracts from hepatic stellate cells treated with cycloheximide for 18 hours, either in the presence and absence of 200 ng/ml TIMP-1, were analyzed by western blotting. Equal quantities (determined by protein concentration) of protein extracts from hepatic stellate cells exposed to: serum alone; cycloheximide alone; or cycloheximide with TIMP-1 protein (100 ng/ml) were assessed by blotting.

| Compound | propidium iodide nuclei fluorescence (DNA cleavage) [1] | TUNEL staining [2] | higher concentrations required to kill rat hepatocytes in comparison to rat hepatic stellate cells [3] [fold] | hepatocytes that do not exclude 0.1% (wt/vol) trypan blue (rat hepatocytes) | hepatocyte attachment to the substratum / membrane integrity (rat hepatocytes; 10 ng/mL TNF-α with 10 μmol/L cycloheximide) | Bcl-2 protein expression (Bcl-2 protein) |
| --- | --- | --- | --- | --- | --- | --- |
| CN1C(=O)[C@]23CC4=CC=C[C@H](O)[C@H]4N2C(=O)[C@@]1(CO)SS3 [gliotoxin] | broad low level of fluorescence | extensive TUNEL-positive staining | 10 to 100 | approximately 90% | significant reductions in cell attachment to the substratum | – |
| TIMP-1: recombinant tissue inhibitor of matrix metalloproteases 1 (Biogenesis) | – | – | – | – | – | enhanced levels of Bcl-2 protein expression |
